Series [1] in a line: Physical form stability / conversion to Form 1. In kind it is physicochemical. On the procedure: The suspension was heated with a heat gun to dissolve most of the solids, and then left to slowly cool to room temperature. The resultant crystals were filtered and analysed by DSC, TGA, and XRPD.
Amorphous gepotidacin mesylate can be generated via lyophilization. Form 1 (150 mg) was dissolved MeCN/water (80/20 v/v; 1 mL). A clarifying filtration was performed and the filtrate was added to a 20 mL vial. The solution was frozen under liquid nitrogen and lyophilized for 4 hours.

A short description of series [2]: Moisture sorption/desorption isotherms (DVS). The following applies: first sorption cycle.
From the text: The moisture sorption/desorption isotherms of gepotidacin mesylate dihydrate and gepotidacin HCl were obtained over a range of 5-90% relative humidity.

As for `CS(=O)(=O)O.O.O.O=c1ccc2ncc(=O)n3c2n1C[C@H]3CN1CCC(NCc2cc3c(cn2)OCCC3)CC1` [Gepotidacin mesylate anhydrate (Form 2)], the physical form stability result in series [1] (ambient conditions) is on record as “convert to Gepotidacin mesylate dihydrate (Form 1) after one hour”; in series [1] (ambient conditions, listed as Gepotidacin Mesylate Anhydrate (Form 2)), “unstable under ambient conditions”. For the same compound, in series [2], the “critical RH step” value was determined as 60 % RH. Besides, in series [2] (critical step at 60% RH, indicates conversion to Form 1), the uptake of water is listed as 4.8%.
In the case of `CS(=O)(=O)O.O.O.O=c1ccc2ncc(=O)n3c2n1C[C@H]3CN1CCC(NCc2cc3c(cn2)OCCC3)CC1` [Amorphous gepotidacin mesylate], the physical form stability result in series [1] (amorphous by lyophilization from MeCN/water (80/20 v/v)) is “started to convert to Form 1 unless stored in a sealed vial with desiccant”; in series [1] (amorphous by lyophilization of an aq. t-BuOH solution, ambient conditions), “physically stable for at least three days”.

These data come from US12528809B2, “Crystalline forms of gepotidacin” (GLAXOSMITHKLINE INTELLECTUAL PROPERTY DEVELOPMENT LIMITED, priority 2020, dated 2026).
